Where a name gives a salt, the structure may show the parent alone.
What was measured:
[1] = system: Calf thymus DNA; test: Equilibrium dialysis, non-covalent binding to DNA; settings: for Kd: 0.01 M Tris, non-covalent binding; for (PS)/(S) for DNA in Saturated Solution: occupied/unoccupied binding sites
Procedure: (§1) In order to establish the dissociation constants from DNA and RNA, the non-covalent binding was ascertained. Non-covalent binding determines the presence of the psoralen within the nucleic acid helix. Its presence is determined in the absence of any radiant energy. As noted before, radiant energy is necessary to activate the psoralen covalent binding reaction with nucleic acid base pairs.
(§2) To determine the non-covalent binding, Calf thymus DNA (Sigma Type I) was dissolved in a 0.01 M Tris 0.001 M EDTA pH 8.5 buffer at a concentration of 25 ug/ml. A quantity of this DNA solution was placed in a dialysis bag (pretreated by boiling in NaHCO3), and the various tritiated derivatives were added inside the bag in half the cases and outside the bag in the other half. The molar ratio of psoralen molecules to base pairs was approximately 1:25. The bags were placed in vials filled with 18 ml of buffer and put on a shaker for 48-60 hours. After this period, radioactivity was determined both inside and outside the bags and the optical density of the DNA solution measured. From this information, and the specific activity of each derivative, the amount of drug non-covalently bound to the DNA was determined. Binding of the derivatives to Drosophila melanogaster ribosomal RNA was measured in exactly the same manner.
(§3) The units of the dissociation constants are moles/liter. Solubilities and molar extinction coefficients (ε) were obtained in pure water, the equilibrium constants (KD) in 0.01 M Tris.

[2] = biological target: Drosophila melanogaster ribosomal RNA; test: Equilibrium dialysis, non-covalent binding to RNA; settings: for Kd: 0.01 M Tris, non-covalent binding; for (PS)/(S) for RNA in Saturated Solution: occupied/unoccupied binding sites
Procedure: as §1, §2, §3

[3] = Solubility in pure water; type: physicochemical; settings: for solubility: pure water
Excerpt: In order to study solubilities and dissociation constants, it is most convenient to prepare tritiated derivatives of the psoralen compounds. Thus, well-known radiation counting methods may be utilized to monitor the presence of the psoralens in solutions, or in nucleic acids.
as §3

[4] = Molar extinction coefficient in pure water; type: physicochemical
Excerpt: as §3

[5] = system: DNA (calf thymus); test: Low intensity photoaddition (covalent binding) to DNA; settings: for A (footnote 1, shown as drawing 9) / B = percent of added psoralen covalently bound: 25 μg/ml DNA, psoralen:base pair 1:3; for moles of psoralen bound per mole of base pairs: 90 minutes irradiation
Procedure: (§4) The covalent binding of the psoralens to DNA and RNA was studied. To achieve covalent binding, it is necessary to supply radiant energy (light) to the binding sites. These studies were carried out as follows:
(§5) The DNA and RNA used in the covalent binding studies have been described previously. Samples of each nucleic acid were prepared at a concentration of 25 ug/ml in 0.01 m Tris 0.001 M EDTA buffer. The radioactive-psoralen derivatives were added in a ratio of one psoralen for every three base pairs. The irradiation was carried out in one of the two following devices.
The low intensity irradiations were performed with a modified slide projector which was fitted with a 400 watt General Electric mercury vapor lamp (H 400 A 33-1/T16). The image of the arc was focused on the same cell, jacketed by a cobaltous nitrate solution which was also used for the high intensity irradiations. The light intensity delivered to the sample in this device was 4 to 6 mw/cm^2. The high intensity irradiations were carried out in a device containing two of the sam 400 watt General Electric mercury vapor lamps which were mounted on either side of a double walled sample chamber at a distance between centers of 4.0 cm. The chamber was cooled to 10° C. by continuous circulation of a temperature regulated solution of cobaltous nitrate (40% w/w). The cobalt solution served as an ultraviolet filter which allowed a maximum transmittance of 365 nm light and a window from approximately 340-380 nm. The intensity of the light at the surface of the inner sample chamber was approximately 100 mw/cm^2. The nucleic acid-psoralen mixture was placed in the inner chamber where it was continuously stirred throughout the irradiation. […] Each aliquot was then extracted twice with chloroform/iso-amyl alcohol (24:1) to remove unreacted psoralen followed by exhaustive dialysis against 0.01 M Tris, 0.001 M EDTA buffer. The successful extraction of unbound psoralen by the chloroform-isoamyl alcohol required the aqueous phase to be at least 0.15 M in NaCl. Finally, the optical density of the nucleic-acid psoralen mixture was taken and its radioactivity determined, thus giving the amount of derivative covalently bound to the DNA or RNA. Taking samples, at spaced time intervals also permitted an assessment of the kinetics of the covalent binding.

[6] = system: DNA (calf thymus); test: High intensity photoaddition (covalent binding) to DNA; settings: 25 μg/ml DNA, psoralen:base pair 1:3
Procedure: as §4, §5
(§6) The low intensity irradiations were performed with a modified slide projector which was fitted with a 400 watt General Electric mercury vapor lamp (H 400 A 33-1/T16). The image of the arc was focused on the same cell, jacketed by a cobaltous nitrate solution which was also used for the high intensity irradiations. The light intensity delivered to the sample in this device was 4 to 6 mw/cm^2. The high intensity irradiations were carried out in a device containing two of the sam 400 watt General Electric mercury vapor lamps which were mounted on either side of a double walled sample chamber at a distance between centers of 4.0 cm. The chamber was cooled to 10° C. by continuous circulation of a temperature regulated solution of cobaltous nitrate (40% w/w). The cobalt solution served as an ultraviolet filter which allowed a maximum transmittance of 365 nm light and a window from approximately 340-380 nm. The intensity of the light at the surface of the inner sample chamber was approximately 100 mw/cm^2. The nucleic acid-psoralen mixture was placed in the inner chamber where it was continuously stirred throughout the irradiation. Aliquots of each solution (derivative plus nucleic acid) were taken at 20, 40 and 60 minutes. Each aliquot was then extracted twice with chloroform/iso-amyl alcohol (24:1) to remove unreacted psoralen followed by exhaustive dialysis against 0.01 M Tris, 0.001 M EDTA buffer. The successful extraction of unbound psoralen by the chloroform-isoamyl alcohol required the aqueous phase to be at least 0.15 M in NaCl. Finally, the optical density of the nucleic-acid psoralen mixture was taken and its radioactivity determined, thus giving the amount of derivative covalently bound to the DNA or RNA. Taking samples, at spaced time intervals also permitted an assessment of the kinetics of the covalent binding.

[7] = system: RNA (Drosophila melanogaster ribosomal RNA); test: High intensity photoaddition (covalent binding) to RNA; settings: 25 μg/ml RNA, psoralen:base pair 1:3
Procedure: as §4, §5, §6

[8] = system: vesicular stomatitis virus; type: cell-based, Vesicular stomatitis virus Indiana strain; settings: for effectiveness in inactivation of vesicular stomatitis virus vs 4,5',8-trimethyl psoralen: high dose rates, e.g., 30 μg/ml
[9] = system: DNA; test: Reactivity with DNA (general statement); type: binding, calf
Procedure: as §4, §5
as §6, with “Each aliquot was then extracted twice with chloroform/iso-amyl alcohol (24:1) to remove unreacted psoralen followed by exhaustive dialysis against 0.01 M Tris, 0.001 M EDTA buffer. The successful extraction of unbound psoralen by the chloroform-isoamyl alcohol required the aqueous phase to be at least 0.15 M in NaCl.” left out, “Taking samples, at spaced time intervals also permitted an assessment of the kinetics of the covalent binding.” left out

## Cc1oc2c(C)c3oc(=O)cc(C)c3cc2c1CN [4'-aminomethyl-4,5',8-trimethyl psoralen hydrochloride]
[1]
  Kd: 6.6 µM
[1]; calculated, DNA
  times more effective at reaching state of site saturation: 10^4 times
[1]; saturated solution
  (PS)/(S) for DNA in Saturated Solution: 5000
[1]; vs 4'-hydroxymethyl trioxsalen
  times more strongly binding than 4'-hydroxymethyl trioxsalen: about 100 times
[1]; vs trioxsalen
  times more strongly binding to DNA than trioxsalen: about 8 times
[2]
  Kd: 20 µM
  (PS)/(S) for RNA in Saturated Solution: 1700
[3]
  solubility: 10000 µg/mL
[3]; molar
  solubility: 34000 µM
[3]; vs 4'-hydroxymethyl trioxsalen
  times more soluble than 4'-hydroxymethyl trioxsalen: 150 times
[4]
  Extinction coefficient ε, 250 nm: 25000 L/mol/cm
[5]
  rate of reaction with DNA / initial rate of photochemical binding: reacts with DNA much faster than trioxsalen
  moles of psoralen bound per mole of base pairs: 0.18 moles per mole of base pairs
[5]; 5 min irradiation
  A (footnote 1, shown as drawing 9): 15.0
  B = percent of added psoralen covalently bound: 19.3%
[5]; 10 min irradiation
  A (footnote 1, shown as drawing 9): 10.5
  B = percent of added psoralen covalently bound: 27.4%
[5]; 30 min irradiation
  A (footnote 1, shown as drawing 9): 6.9
  B = percent of added psoralen covalently bound: 41.8%
[5]; 60 min irradiation
  A (footnote 1, shown as drawing 9): 5.9
  B = percent of added psoralen covalently bound: 48.7%
[5]; 90 min irradiation
  A (footnote 1, shown as drawing 9): 5.5
  B = percent of added psoralen covalently bound: 52.4%
[5]; after 90 minutes of irradiation
  molecules in the solution covalently bound to DNA: over half
[6]; 20 min irradiation
  A (footnote 1, shown as drawing 10): 4.7
  B = percent of added psoralen covalently bound: 63.8%
[6]; 40 min irradiation
  A (footnote 1, shown as drawing 10): 4.8
  B = percent of added psoralen covalently bound: 62.5%
[6]; 60 min irradiation
  A (footnote 1, shown as drawing 10): 4.8
  B = percent of added psoralen covalently bound: 62.5%
[7]; 20 min irradiation
  A (footnote 1, shown as drawing 11): 5.1
  B = percent of added psoralen covalently bound: 59.4%
[7]; 40 min irradiation
  A (footnote 1, shown as drawing 11): 5.3
  B = percent of added psoralen covalently bound: 57.2%
[7]; 60 min irradiation
  A (footnote 1, shown as drawing 11): 5.3
  B = percent of added psoralen covalently bound: 57.3%
[8]; FIG. 2, 1-3 μg/ml, long wavelength UV
  inactivation of vesicular stomatitis virus, comparison in words: undisputed superiority
[8]
  effectiveness in inactivation of vesicular stomatitis virus vs 4,5',8-trimethyl psoralen: nearly one thousand times more effective
[9]
  reactivity with DNA: excellent reactivity with DNA

## COCc1c(C)oc2c(C)c3oc(=O)cc(C)c3cc12 [4'-methoxymethyl-4,5',8-trimethyl psoralen]
[1]
  Kd: 94 µM
[1]; saturated solution, expected from KD and solubility
  DNA site saturation, one psoralen per base pairs: one psoralen per three base pairs
[1]; saturated solution
  (PS)/(S) for DNA in Saturated Solution: 0.39
[1]; saturated solution, listed as 4'-methoxymethyl trioxsalen
  (PS)/(S) for DNA in Saturated Solution: 0.5
[1]; vs methoxsalen
  times more strongly binding to DNA than methoxsalen: 10 times
[2]
  Kd: 1000 µM
  (PS)/(S) for RNA in Saturated Solution: 0.037
[3]
  solubility: 10 µg/mL
[3]; molar
  solubility: 37 µM
[4]
  Extinction coefficient ε, 250 nm: 21000 L/mol/cm
[6]; 20 min irradiation
  A (footnote 1, shown as drawing 10): 14.1
  B = percent of added psoralen covalently bound: 21.3%
[6]; 40 min irradiation
  A (footnote 1, shown as drawing 10): 14.3
  B = percent of added psoralen covalently bound: 21.0%
[6]; 60 min irradiation
  A (footnote 1, shown as drawing 10): 13.8
  B = percent of added psoralen covalently bound: 21.7%
[7]; 20 min irradiation
  A (footnote 1, shown as drawing 11): 264.2
  B = percent of added psoralen covalently bound: 1.2%
[7]; 40 min irradiation
  A (footnote 1, shown as drawing 11): 216.8
  B = percent of added psoralen covalently bound: 1.4%
[7]; 60 min irradiation
  A (footnote 1, shown as drawing 11): 183.4
  B = percent of added psoralen covalently bound: 1.6%
[8]
  effectiveness in inactivation of vesicular stomatitis virus vs 4,5',8-trimethyl psoralen: nearly one thousand times more effective
[9]
  reactivity with DNA: excellent reactivity with DNA

## Cc1cc2cc3c(C)cc(=O)oc3c(C)c2o1 [trioxsalen, 4,5',8-trimethyl psoralen, reference compound]
[1]
  Kd: 56 µM
[1]; saturated solution
  one psoralen per n base pairs at equilibrium (best achievable): ~20 base pairs
  (PS)/(S) for DNA in Saturated Solution: 0.046
[1]; vs 4'-hydroxymethyl trioxsalen (trioxsalen binding)
  times stronger binding to DNA than 4'-hydroxymethyl trioxsalen: 5 times
[1]; vs 4'-methoxymethyl trioxsalen
  times stronger binding to DNA than 4'-methoxymethyl trioxsalen: 2 times
[2]
  Kd: 100 µM
  (PS)/(S) for RNA in Saturated Solution: 0.026
[3]
  solubility: 0.6 µg/mL
[3]; molar
  solubility: 2.6 µM
[4]
  Extinction coefficient ε, 250 nm: 18000 L/mol/cm
[5]
  rate of reaction with DNA / initial rate of photochemical binding: greater initial rate of photochemical binding than 4'-hydroxymethyl trioxsalen
  moles of psoralen bound per mole of base pairs: 0.09 moles per mole of base pairs
[5]; 5 min irradiation
  A (footnote 1, shown as drawing 9): 19.7
  B = percent of added psoralen covalently bound: 15.5%
[5]; 10 min irradiation
  A (footnote 1, shown as drawing 9): 15.5
  B = percent of added psoralen covalently bound: 19.7%
[5]; 30 min irradiation
  A (footnote 1, shown as drawing 9): 13.7
  B = percent of added psoralen covalently bound: 22.1%
[5]; 60 min irradiation
  A (footnote 1, shown as drawing 9): 12.8
  B = percent of added psoralen covalently bound: 23.6%
[5]; 90 min irradiation
  A (footnote 1, shown as drawing 9): 10.6
  B = percent of added psoralen covalently bound: 28.5%
[6]; 20 min irradiation
  A (footnote 1, shown as drawing 10): 11.6
  B = percent of added psoralen covalently bound: 25.9%
[6]; 40 min irradiation
  A (footnote 1, shown as drawing 10): 10.6
  B = percent of added psoralen covalently bound: 28.3%
[6]; 60 min irradiation
  A (footnote 1, shown as drawing 10): 12.2
  B = percent of added psoralen covalently bound: 24.6%
[7]; 20 min irradiation
  A (footnote 1, shown as drawing 11): 23.1
  B = percent of added psoralen covalently bound: 13.0%
[7]; 40 min irradiation
  A (footnote 1, shown as drawing 11): 21.6
  B = percent of added psoralen covalently bound: 13.9%
[7]; 60 min irradiation
  A (footnote 1, shown as drawing 11): 20.6
  B = percent of added psoralen covalently bound: 14.8%
[8]; FIG. 1, from 10 μg/ml to 30 μg/ml
  effect of increasing concentration on ability to inactivate the virus: no effect on its ability to inactivate the virus

Source: patent US4124598A, “Psoralens” (Hoffmann-La Roche Inc., priority 1976, dated 1978)
